Experimental data taken from patent US20220252625A1, “TREATMENT AND DIAGNOSIS OF CHRONIC INFLAMMATORY CONDITIONS IN THE LOWER URINARY TRACT” (SELECTIMMUNE PHARMA AB, priority 2019, published 2022).
Several values for one entry are separate records, joined by “and”; a condition that tells them apart may be missing. Equal entries are not always repeated. Entries after “also recorded” stand apart in the source; their conditions may differ.

Tests used:
[1] = test system: Substance P; test: Ten-patient CPPS trial: urine neuropeptides; assay type: in vivo, human; details: P<0.001
Protocol: (§1) A significant reduction in pain, urgency and frequency of urination was recorded in 9/10 patients (FIGS. 7c, 7d and 7e). Laboratory samples were obtained at diagnosis, after the initiation of anakinra treatment (n=10), during the “treatment break” and after continuation of anakinra treatment (n=9). Urine neuropeptides involved in the pain response (Substance P) were inhibited, with a biphasic response following the symptom score (FIG. 7f).

[2] = test system: patients with chronic pelvic pain syndrome (CPPS); test: Investigator driven open trial, ten CPPS patients: symptoms, quality of life, side effects; assay type: in vivo, human
Protocol: Here we identify that IL-1RA treatment may be useful to alleviate bladder pain. The hypothesis was evaluated by enrolling ten patients with chronic pelvic pain syndrome, (CPPS) in an investigator driven open trial (see below and FIG. 7). The patients received daily anakinra treatment (100 mg) until a stable response was observed. Treatment was then transiently interrupted and when the symptoms returned, treatment was resumed. Patient 10 remained asymptomatic.
Ten patients with a long history of CPPS were enrolled after informed consent (age, gender, disease profile) and instructed to fill in a questionnaire detailing frequency of urination, pain, frequency of pain medication and quality of life.
as §1

[3] = test system: IL-1β; test: Urine IL-1β concentration, patients with chronic cystitis; assay type: in vivo, human; details: FIG. 5
Protocol: (§2) Samples: Blood and urine samples for investigation of inflammatory processes as well as genetic and proteomic analyses.
(§3) For evaluation of the levels of systemic and local inflammatory processes, analyses of CRP, neutrophil count and Interleukins are performed in serum and urine.
(§4) To be able to define a treatment group where anakinra might serve as an effective therapeutic option, we searched for urine biomarkers. In addition to patient urine samples, samples were collected from healthy controls to compare urine concentrations of IL-1β and Substance P (SP). […] In contrast, SP concentrations was increased in patients during maximum symptoms (209 vs 75 pg/ml, P=0.003), indicating a biomarker for bladder inflammation (FIG. 2).

[4] = test system: patients with bladder pain syndrome (BPS); test: Open label trial, ten BPS patients: symptoms, quality of life, side effects; assay type: in vivo, human
Protocol: The inventors have tested the hypothesis that IL-1RA treatment may be useful to alleviate bladder pain. Ten patients with BPS were enrolled in an investigator-driven open trial. The patients received daily Kineret treatment (100 mg) for seven days. Treatment was then transiently interrupted and if the symptoms returned, treatment was resumed.
(§5) a) Schematic of the study protocol. Ten patients with a long history of BPS (ref EAU guidelines) were enrolled after informed consent and instructed to fill in a questionnaire detailing frequency of urination, pain, frequency of pain medication and quality of life. Laboratory samples were obtained at diagnosis, after the initiation of Kineret treatment (n=10), during the “treatment break” and after continuation of Kineret treatment (n=9). Neuropeptides involved in the pain response (Substance P) were quantified in urine. Peripheral blood RNA was subjected to genome wide transcriptomic analysis to define molecular effects of Kineret treatment.
In this study, we addressed if IL-1RA treatment might be efficient in patients with chronic bladder pain. We conducted an explorative, open label trial in patients with BPS (Table 5). Patients received daily subcutaneous injections of Anakinra (100 mg) for seven days and the therapeutic effects were recorded. To address potential placebo effects, treatment was transiently interrupted for a maximum of 14 days and when the symptoms returned, treatment was resumed and continued with individual treatment regimes. […] In the remaining patients, bladder pathology was not detected. During the study, patients were instructed to keep a symptom journal recording the sensation of pain and the frequency of micturition.

[5] = test system: WBC and Interleukins (IL6, IL8 and IL1b) in urine; test: Nine-patient study: estimated WBC and Interleukins in urine; assay type: in vivo, human; details: prior, during or after treatment
Text: (§6) The effect of anakinra in the treatment of CPPS was studied in a clinical study. Inclusion criteria were CPPS mainly with the Bladder Pain phenotype, but also the with the Urethral and Prostate Pain phenotype. Exclusion criteria were uncontrolled diabetes mellitus, treatment for malignant disease within the preceding 10 years, pregnancy and age <18 years and ongoing infectious diseases, including urinary tract infections, and neutropenia (<1.5×10^9/L). Patients gave informed consent for the use of unidentified personal clinical data for research purposes. Included patients were examined using clinical standard methods to rule out any ongoing disease. Blood and serum for hemoglobulin, liver and kidney function tests and White Blood Cell (WBC) counts were analysed. Urine was obtained for dip stick test (leukocytesteras for WBC estimation, the nitur test for ruling out bacteriuria), standard urinary Interleukins (IL6, IL8 and IL1b) and for urine culture. Cystoscopy and CT urography were performed in all patients. Blood and serum analysis and cystoscopy were repeated approximately two weeks after the start of treatment, and after approximately three months. Nine patients were recruited (Table 2).

[6] = test system: NK1R and its ligand SP; details: mice; cited from earlier work
[7] = test system: Substance P; test: Urine Substance P (SP) concentration, patients with chronic cystitis; assay type: in vivo, human
Protocol: as §2, §3, §4

[8] = test system: Substance P; test: BPS trial: urine Substance P / neuropeptide levels; assay type: in vivo, human; details: for urine SP / neuropeptide levels, words: in vivo
Text: as §5

[9] = test system: patients with CPPS (Bladder, Urethral and Prostate Pain phenotype); test: Clinical study, nine CPPS patients: symptom scoring (frequency, pain, QoL), side effects; assay type: in vivo, human; details: for clinical response in the detailed patient description, words: one patient per block (Patient 1-9); for Long-term follow-up: Comment: s.c. 100 mg long-term regimen, observation 24-397 days
Text: as §6
After inclusion, patients were treated with anakinra 100 mg by self-administrated subcutaneous injection, repeated once daily as a maximum, or (if relief of symptoms and pain) on demand when symptoms or pain recurred. Regularly symptom scoring on frequency, supra-pubic/bladder pain/prostate/urethral pain and Quality of Life was performed to evaluate treatment effect.

[10] = post treatment, individual patients
[11] = pre treatment baseline, individual patients

Substance: anakinra: interleukin-1 receptor antagonist (r-metHuIL-1ra) produced in Escherichia coli; recombinant, slightly modified version of the human interleukin-1 receptor antagonist protein
- urine neuropeptide (Substance P) levels, words [1]: markedly reduced; also recorded: inhibited
- symptom score (pain and frequency), words ([2]; P<0.01): reduction in symptom score
- quality of life, words ([2]; P<0.02): increase in quality of life
- patients with dramatic clinical effects ([2]; daily 100 mg, ten CPPS patients): 9/10
- duration of symptom relief ([2]; range over patients): 0.5 to 8 days
- time to symptom relief after the first dose ([2]; range over patients): 1 to 6 h
- patients with significant reduction in pain, urgency and frequency of urination ([2]; ten CPPS patients): 9/10
- side effects ([2]; ten CPPS patients, 100 mg): Two patients reported local irritation at the injection site; also recorded: one patient developed neutropenia
- urine IL-1β levels after Anakinra treatment [3]: do not change
- patients with dramatic clinical improvement ([4]; daily 100 mg for seven days, ten BPS patients): 9/10
- lasting therapeutic effects ([4]; human, in vivo): 3 days
- quality of life, words ([4]; human, in vivo): increased quality of life
- side effects ([4]; human, in vivo): Two patients reported local irritation at the injection site
- symptom score (pain and frequency), words ([4]; human, in vivo): reduction in symptom score
- quality of life, words ([4]; human, in vivo, listed as Kineret): marked increase in quality of life
- symptom relief at the onset of treatment, median ([4]; median): 2 h
- patients with complete, or close to complete clinical response ([4]; of ten patients): Nine of the patients
- relief of symptoms after the first injection ([4]; one patient with very severe BPS/ICS): 1 to 2 h
- duration of symptom relief ([4]; range over patients): 0.5 to 8 days
- time to symptom relief after the first dose ([4]; range over patients): 1 to 6 h
- estimated WBC and Interleukins in urine, words [5]: not significantly increased
- expression of NK1R and SP in the bladder mucosa, words [6]: reduced the expression of the pain receptor NK1R and its ligand SP
- urine SP levels after Anakinra treatment ([7]; FIG. 3): reduced
- urine SP concentration at time of minimum symptom, after treatment ([7]; paired samples, P=0.02): 136 pg/mL
- urine SP concentration at time of maximum symptom ([7]; paired samples, baseline of the comparison, P=0.02): 243 pg/mL
- patients with reduced SP levels ([8]; first treatment round): 9/10
- urine SP / neuropeptide levels, words [8]: markedly decreased
- urine SP / neuropeptide levels, words ([8]; listed as Kineret): rapid reduction
- side effects ([9]; 100 mg s.c.): sparse and mild; also recorded: two cases of skin reaction at the place of injection; also recorded: one case of headache post injection; also recorded: without side effects; also recorded: minor headache
- Side effect ([9]; 100 mg s.c., individual patients): local s.c. irritation; also recorded: not reported; also recorded: headache post inj
- clinical response in the detailed patient description, words ([9]; 100 mg s.c.): subjectively significantly improved with a clear reduction in frequency and local pain from the bladder; also recorded: pain relief followed immediately; also recorded: constant relief of symptoms; also recorded: the urge, frequency and bladder pain dramatically decreased; also recorded: the urgency and frequency was dramatically reduced; also recorded: relief of fever attacks and arthralgia, as well as reduced urgency and frequency
- clinical response in the detailed patient description, words ([9]; 100 mg s.c., listed as Anakinra): significant symptom and pain relief; also recorded: constant relief of symptoms
- maximum effect generally lasted ([9]; after one s.c. inj. of 100 mg): 2 to 3 days
- maximum effect on symptoms seen within ([9]; after one s.c. inj. of 100 mg, all nine patients): 1 to 24 h
- symptoms as measured by symptom scoring, words ([9]; all patients): dramatically reduced symptoms
- treatment effect during long-term follow-up, words ([9]; all patients): consistent
- experienced quality of life (QoL), words ([9]; human, in vivo): increased in all patients; also recorded: highly increased, or increased
- number of micturitions at night-time, words ([9]; human, in vivo): generally reduced
- number of micturitions during daytime, words ([9]; human, in vivo): reduced in all patients
- pain experienced by the patients, words ([9]; human, in vivo): decreased dramatically
- patients completely free from pain ([9]; of nine patients): five out of the nine
- Frequency (nycturia) post (number of micturations during nighttime) [9, 10]: (0) and (1) (6×) and (2)
- Frequency post (number of micturations during daytime) [9, 10]: 5 (2×) and 4 (2×) and 6 (3×) and 8
- Frequency (nycturia) pre (number of micturations during nighttime) [9, 11]: (1-2) and (5) (3×) and (3) (2×) and (4) and (1)
- Frequency pre (number of micturations during daytime) [9, 11]: 12 (4×) and 11 and 8 (2×) and 7
- Long-term follow-up: Comment ([9]; individual patients, 100 mg s.c. dosing 1 per 2-4 weeks): increased QoL,; also recorded: symptom free
- Long-term follow-up: Comment ([9]; individual patients, 100 mg s.c. dosing 1 per 2-3 days): highly increased QoL
- Long-term follow-up: Comment ([9]; individual patients, 100 mg s.c. dosing 1 per day): highly increased QoL,; also recorded: planned cystectomy postponed
- Long-term follow-up: Comment ([9]; individual patients, 100 mg s.c. dosing 1 per week): highly increased QoL; also recorded: highly increased QoL,; also recorded: highly increased QoL;
- QoL reduction post ([9]; score 0-6, 0 not reduced QoL, post treatment, individual patients): 2 (2×) and 1 (2×) and 0 (5×)
- Pain post ([9]; score 0-6, 0 symptom-free, post treatment, individual patients): 2 (2×) and 1 (2×) and 0 (5×)
- Pain pre ([9]; score 0-6, 6 severe pain, pre treatment baseline, individual patients): 5 (3×) and 5-6 and 6 and 4 (4×)
- QoL reduction pre ([9]; score 0-6, 6 severely reduced QoL, pre treatment baseline, individual patients): 5 (3×) and 5-6 and 6 (2×) and 4 (3×)
